Experimental data published in the Kinase Knowledgebase extract (Sharma et al. 2016).

What was measured:
PIK3CD (Human) = PIK3CD (Human) (UniProt O00329); assay: Enzyme Assay
PIK3CB (Human) = PIK3CB (Human) (UniProt P42338); assay: Enzyme Assay
PIK3CA (human) = PIK3CA (human) (UniProt P42336); assay: Enzyme Assay
PIK3CG (human) [1] = target: PIK3CG (human) (UniProt P48736); assay: Enzyme Assay
PIK3CG (human) [2] = target: PIK3CG (human) (UniProt P48736); assay: Cell-Based Assay; settings: u937

PIK3CA (human), sequence (P42336 whole entry, looked up): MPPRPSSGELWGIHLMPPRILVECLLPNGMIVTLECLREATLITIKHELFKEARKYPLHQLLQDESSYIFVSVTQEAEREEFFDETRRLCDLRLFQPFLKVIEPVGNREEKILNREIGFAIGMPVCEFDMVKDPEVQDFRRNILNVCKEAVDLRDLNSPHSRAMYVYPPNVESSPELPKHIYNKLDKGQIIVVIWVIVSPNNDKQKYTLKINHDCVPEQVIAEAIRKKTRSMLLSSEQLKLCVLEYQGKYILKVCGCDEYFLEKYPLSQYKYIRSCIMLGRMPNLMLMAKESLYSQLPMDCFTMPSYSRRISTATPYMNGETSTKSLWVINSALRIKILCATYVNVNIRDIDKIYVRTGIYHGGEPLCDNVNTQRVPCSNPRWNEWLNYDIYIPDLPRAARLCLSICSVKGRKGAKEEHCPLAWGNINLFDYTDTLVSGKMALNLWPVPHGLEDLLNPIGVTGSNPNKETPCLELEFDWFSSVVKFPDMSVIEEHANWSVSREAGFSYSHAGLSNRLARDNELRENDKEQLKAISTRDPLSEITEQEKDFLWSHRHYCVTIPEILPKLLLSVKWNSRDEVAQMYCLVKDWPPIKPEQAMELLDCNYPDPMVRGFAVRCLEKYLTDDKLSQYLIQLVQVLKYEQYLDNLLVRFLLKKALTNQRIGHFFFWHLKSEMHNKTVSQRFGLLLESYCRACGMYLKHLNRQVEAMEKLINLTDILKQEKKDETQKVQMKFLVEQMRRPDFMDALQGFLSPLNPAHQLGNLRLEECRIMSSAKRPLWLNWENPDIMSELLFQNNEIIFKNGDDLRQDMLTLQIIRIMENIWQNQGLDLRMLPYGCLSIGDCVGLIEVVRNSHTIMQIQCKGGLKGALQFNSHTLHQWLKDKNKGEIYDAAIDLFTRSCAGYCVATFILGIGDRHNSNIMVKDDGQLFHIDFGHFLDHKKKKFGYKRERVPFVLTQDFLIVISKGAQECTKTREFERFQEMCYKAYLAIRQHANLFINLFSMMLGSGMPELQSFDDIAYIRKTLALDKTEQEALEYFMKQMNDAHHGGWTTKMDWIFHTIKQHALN
PIK3CB (Human), sequence (P42338 whole entry, looked up): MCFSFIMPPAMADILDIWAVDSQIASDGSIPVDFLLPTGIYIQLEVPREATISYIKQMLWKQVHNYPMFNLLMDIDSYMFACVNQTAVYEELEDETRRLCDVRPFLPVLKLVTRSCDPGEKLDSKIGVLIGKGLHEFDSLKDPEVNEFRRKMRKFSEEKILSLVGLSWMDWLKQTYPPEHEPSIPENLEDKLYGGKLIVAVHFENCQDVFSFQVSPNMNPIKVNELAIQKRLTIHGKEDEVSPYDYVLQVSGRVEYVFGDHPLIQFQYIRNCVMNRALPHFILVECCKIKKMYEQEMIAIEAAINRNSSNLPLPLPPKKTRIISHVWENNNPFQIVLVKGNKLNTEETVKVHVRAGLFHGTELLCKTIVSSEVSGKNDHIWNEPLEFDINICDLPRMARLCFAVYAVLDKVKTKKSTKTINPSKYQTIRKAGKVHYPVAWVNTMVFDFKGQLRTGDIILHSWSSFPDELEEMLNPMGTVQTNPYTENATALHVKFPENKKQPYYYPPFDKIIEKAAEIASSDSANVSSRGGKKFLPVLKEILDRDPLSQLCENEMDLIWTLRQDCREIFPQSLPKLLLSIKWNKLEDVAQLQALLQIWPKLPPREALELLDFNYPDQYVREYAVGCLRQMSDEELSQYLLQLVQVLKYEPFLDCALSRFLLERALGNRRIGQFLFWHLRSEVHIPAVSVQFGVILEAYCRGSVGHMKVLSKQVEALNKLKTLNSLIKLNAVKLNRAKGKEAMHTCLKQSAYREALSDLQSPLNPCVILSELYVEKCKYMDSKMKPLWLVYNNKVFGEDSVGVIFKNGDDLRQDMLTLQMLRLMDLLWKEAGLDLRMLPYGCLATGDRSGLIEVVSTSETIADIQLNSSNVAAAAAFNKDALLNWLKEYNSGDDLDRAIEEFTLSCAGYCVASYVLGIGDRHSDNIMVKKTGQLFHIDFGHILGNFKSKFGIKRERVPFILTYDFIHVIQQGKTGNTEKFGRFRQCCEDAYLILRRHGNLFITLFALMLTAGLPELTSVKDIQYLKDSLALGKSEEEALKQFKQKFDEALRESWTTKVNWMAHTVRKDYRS
PIK3CD (Human), sequence (O00329 whole entry, looked up): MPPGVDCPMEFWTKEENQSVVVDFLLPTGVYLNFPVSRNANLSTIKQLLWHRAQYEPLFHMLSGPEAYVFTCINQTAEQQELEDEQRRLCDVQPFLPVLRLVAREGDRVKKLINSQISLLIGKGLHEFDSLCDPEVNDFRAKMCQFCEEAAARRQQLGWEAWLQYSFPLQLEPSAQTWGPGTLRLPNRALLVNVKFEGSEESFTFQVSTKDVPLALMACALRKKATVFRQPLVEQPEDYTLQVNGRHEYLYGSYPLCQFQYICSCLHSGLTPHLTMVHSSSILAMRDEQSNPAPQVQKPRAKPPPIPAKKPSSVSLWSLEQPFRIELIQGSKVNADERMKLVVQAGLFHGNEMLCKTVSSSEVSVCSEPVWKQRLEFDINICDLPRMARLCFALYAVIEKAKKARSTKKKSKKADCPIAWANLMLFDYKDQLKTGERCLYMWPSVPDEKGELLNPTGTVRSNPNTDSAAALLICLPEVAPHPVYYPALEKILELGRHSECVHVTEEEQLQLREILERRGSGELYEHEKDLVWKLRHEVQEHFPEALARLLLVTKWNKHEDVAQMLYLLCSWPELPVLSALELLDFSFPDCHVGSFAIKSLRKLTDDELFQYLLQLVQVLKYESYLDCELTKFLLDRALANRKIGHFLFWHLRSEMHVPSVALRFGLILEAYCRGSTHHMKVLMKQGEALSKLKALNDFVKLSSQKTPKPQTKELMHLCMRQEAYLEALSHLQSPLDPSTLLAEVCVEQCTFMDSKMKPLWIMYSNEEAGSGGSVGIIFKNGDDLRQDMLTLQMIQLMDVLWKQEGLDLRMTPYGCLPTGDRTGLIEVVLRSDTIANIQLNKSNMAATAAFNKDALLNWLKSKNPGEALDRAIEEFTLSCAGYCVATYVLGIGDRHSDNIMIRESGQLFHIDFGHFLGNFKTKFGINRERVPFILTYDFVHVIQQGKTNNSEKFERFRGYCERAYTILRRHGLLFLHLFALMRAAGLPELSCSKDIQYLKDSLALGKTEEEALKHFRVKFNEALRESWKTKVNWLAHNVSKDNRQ
PIK3CG (human), sequence (P48736 whole entry, looked up): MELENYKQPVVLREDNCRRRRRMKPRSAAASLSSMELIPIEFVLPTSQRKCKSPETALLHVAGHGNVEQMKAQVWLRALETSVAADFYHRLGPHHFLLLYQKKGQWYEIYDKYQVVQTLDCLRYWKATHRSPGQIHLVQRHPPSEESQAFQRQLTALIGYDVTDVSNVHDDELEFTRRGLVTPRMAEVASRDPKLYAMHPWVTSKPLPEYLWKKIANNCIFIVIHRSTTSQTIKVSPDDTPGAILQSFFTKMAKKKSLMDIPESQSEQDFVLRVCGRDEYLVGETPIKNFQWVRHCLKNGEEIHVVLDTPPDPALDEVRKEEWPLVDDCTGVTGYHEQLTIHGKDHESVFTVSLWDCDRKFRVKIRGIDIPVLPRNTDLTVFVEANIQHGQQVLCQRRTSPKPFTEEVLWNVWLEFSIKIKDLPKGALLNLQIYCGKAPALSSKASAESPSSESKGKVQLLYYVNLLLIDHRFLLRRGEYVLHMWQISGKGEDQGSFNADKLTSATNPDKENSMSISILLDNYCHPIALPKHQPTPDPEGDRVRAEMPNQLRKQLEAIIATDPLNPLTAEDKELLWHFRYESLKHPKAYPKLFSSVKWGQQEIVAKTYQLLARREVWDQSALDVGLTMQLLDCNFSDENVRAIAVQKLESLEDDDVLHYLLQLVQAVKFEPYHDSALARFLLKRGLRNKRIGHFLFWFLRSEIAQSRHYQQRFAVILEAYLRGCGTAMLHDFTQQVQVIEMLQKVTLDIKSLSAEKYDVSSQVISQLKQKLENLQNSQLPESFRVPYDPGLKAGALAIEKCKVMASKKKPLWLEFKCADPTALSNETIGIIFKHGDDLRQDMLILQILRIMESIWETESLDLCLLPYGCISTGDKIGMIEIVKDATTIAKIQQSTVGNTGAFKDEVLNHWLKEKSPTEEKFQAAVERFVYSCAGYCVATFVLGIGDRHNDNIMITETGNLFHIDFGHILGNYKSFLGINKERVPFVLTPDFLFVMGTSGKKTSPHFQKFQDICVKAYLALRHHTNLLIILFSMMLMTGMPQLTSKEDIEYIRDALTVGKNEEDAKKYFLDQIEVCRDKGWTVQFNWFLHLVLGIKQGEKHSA

| IC50 (PIK3CD (Human)) [µM] | IC50 (PIK3CB (Human)) [µM] | IC50 (PIK3CA (human)) [µM] | IC50 (PIK3CG (human) [1]) [µM] | IC50 (PIK3CG (human) [2]) [µM] | Structure (SMILES) |
| --- | --- | --- | --- | --- | --- |
| 0.01 | > 9.1 | 0.16 | 0.006 | 0.122 | Cc1ccc(S(=O)(=O)N[C@H]2CC[C@H](O)CC2)cc1-c1cncc(-c2csc(CN3CCOCC3)c2)n1 |
| 0.09 | 0.45 | 0.04 | 0.013 | 0.022 | Cc1ccc(S(=O)(=O)NC2CC3(CC(O)C3)C2)cc1-c1cncc(-c2cn(C)nc2C)n1 (stereo not given) |
| 0.04 | 1.9 | 0.1 | 0.038 | 0.122 | Cc1cc(-c2cncc(-c3cc(S(=O)(=O)NC[C@H]4C[C@@H](O)C4)ccc3C)n2)n(C)n1 |
| 0.1 | 0.63 | 0.09 | 0.011 | 0.061 | Cc1ccc(S(=O)(=O)NC[C@H]2C[C@@H](O)C2)cc1-c1cncc(-c2cn(C)nc2C)n1 |
